Source: patent US20090170091A1, “Method For Predicting Biological Systems Responses” (priority 2006, published 2009)
Where two headings read alike, the source gives them in different places.

Key:
HeLa cells = HeLa cells after camptothecin treatment; mRNA abundance; cited from earlier work
HepG2 cells = test: CellCipher cytotox profile, multiplexed HCS toxicity panel (11 cytotoxicity parameters, two plate assay); assay type: cell-based
Excerpt: This example pertains to a multiplexed toxicity HCS profiling panel. It describes the performance of a specific CellCipher™ cytotox profile which is designed to measure 11 cytotoxicity parameters using a two plate assay.
Assay and Reagent Specifications. […] The antibody and fluorescent indicators of cell physiology reagent specifications for Cytotox Profile Plate 1 are contained in Table 7 whereas the antibody and fluorescent indicators of cell physiology reagent specifications for Cytotox Profile Plate 2 are contained in Table 8. Finally, the assay buffer specifications for both Cytotox Profile Plates 1 and 2 are contained in Table 9.
HepG2 cell handling and plating procedure. HepG2 cells were obtained from the American Type Cell Collection (cat no. HB-8065) and an original seed stock was prepared from one vial containing 1×10^+6 cells. From the seed stock, a working stock was prepared using standard procedures. Cells were thawed form the working stock when required and maintained in culture for 20 passages before being discarded. […]
Cell plating for cytotox profile. For the cytotox profile, thin bottom 384-well microplates were used that are compatible with the high numerical aperture optics available on most HCS readers. […] Cells were passaged by trypsinization, including trituration, and viable cells counted. […]

## CC[C@@]1(O)C(=O)OCc2c1cc1n(c2=O)Cc2cc3ccccc3nc2-1 [camptothecin]
HeLa cells
  Double strand DNA break repair genes, change: 4.0%
  Histone genes, change: 8.1%
  Mitosis related genes, change: 9.7%
  NF-κB inducible genes, change: 12.5%
  Nuclear compartment genes, change: 16.5%
  p53-inducible genes, change: 28.1%

## CC[C@H](C)C(=O)O[C@H]1C[C@@H](C)C=C2C=C[C@H](C)[C@H](CC[C@@H]3C[C@@H](O)CC(=O)O3)[C@H]21 [lovastatin]
HepG2 cells; HepG2 cells, 11 features at 30 min, 24 h and 72 h, FIG. 9 heat map clusters
  degree of activity (IC50 from KS dose-response fits) across the cytotox profile assays: moderate degree of activity (in the μM range) in many assays

## CC[C@H](C)C(=O)O[C@H]1CCC=C2C=C[C@H](C)[C@H](CC[C@@H]3C[C@@H](O)CC(=O)O3)[C@H]21 [mevastatin]
HepG2 cells
  degree of activity (IC50 from KS dose-response fits) across the cytotox profile assays: moderate degree of activity (in the μM range) in many assays
